Experimental data taken from PMC8262137 (Biochemical pharmacology, 2020).

Target: P-glycoprotein (Pgp; Abcb1a, MDR3) (Mus musculus, UniProt P21447)
Assay: intrinsic protein fluorescence quenching
Type: binding

Sequence of P-glycoprotein (Pgp; Abcb1a, MDR3) (P21447 whole entry): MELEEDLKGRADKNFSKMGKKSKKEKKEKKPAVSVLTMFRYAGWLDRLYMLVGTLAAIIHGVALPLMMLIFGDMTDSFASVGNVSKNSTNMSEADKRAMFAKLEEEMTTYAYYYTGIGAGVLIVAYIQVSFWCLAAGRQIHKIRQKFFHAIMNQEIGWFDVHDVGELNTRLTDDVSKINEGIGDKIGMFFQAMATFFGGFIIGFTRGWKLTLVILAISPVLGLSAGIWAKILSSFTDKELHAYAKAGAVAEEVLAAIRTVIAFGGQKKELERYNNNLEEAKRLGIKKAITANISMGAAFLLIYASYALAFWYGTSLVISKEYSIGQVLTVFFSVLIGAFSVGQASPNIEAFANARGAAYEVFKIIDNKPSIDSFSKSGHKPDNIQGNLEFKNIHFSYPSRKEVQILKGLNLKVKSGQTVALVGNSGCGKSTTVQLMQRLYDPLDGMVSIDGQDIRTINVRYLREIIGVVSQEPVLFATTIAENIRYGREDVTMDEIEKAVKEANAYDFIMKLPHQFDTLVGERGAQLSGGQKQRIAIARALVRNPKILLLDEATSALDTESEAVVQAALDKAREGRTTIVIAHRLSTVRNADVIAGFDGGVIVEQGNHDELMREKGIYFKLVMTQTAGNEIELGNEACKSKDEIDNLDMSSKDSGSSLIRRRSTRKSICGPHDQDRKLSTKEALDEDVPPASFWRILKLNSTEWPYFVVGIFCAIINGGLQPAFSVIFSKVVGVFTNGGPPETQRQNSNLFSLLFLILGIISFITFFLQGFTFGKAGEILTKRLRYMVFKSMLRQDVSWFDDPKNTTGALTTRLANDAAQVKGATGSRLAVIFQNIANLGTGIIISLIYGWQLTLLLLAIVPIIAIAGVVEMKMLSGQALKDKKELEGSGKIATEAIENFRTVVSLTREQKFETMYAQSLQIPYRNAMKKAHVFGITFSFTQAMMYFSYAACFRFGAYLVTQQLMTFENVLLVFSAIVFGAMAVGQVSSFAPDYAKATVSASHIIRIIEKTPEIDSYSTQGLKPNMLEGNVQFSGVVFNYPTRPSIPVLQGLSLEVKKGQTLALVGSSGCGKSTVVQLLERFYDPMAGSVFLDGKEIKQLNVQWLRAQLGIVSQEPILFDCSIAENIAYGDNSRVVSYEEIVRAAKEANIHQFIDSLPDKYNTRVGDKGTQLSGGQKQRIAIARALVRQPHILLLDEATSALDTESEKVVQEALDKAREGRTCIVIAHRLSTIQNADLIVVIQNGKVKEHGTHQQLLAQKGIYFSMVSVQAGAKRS

SMILES	Kd [µM]
COc1cccc2c1C(=O)c1c(O)c3c(c(O)c1C2=O)C[C@@](O)(C(C)=O)C[C@@H]3O[C@H]1C[C@H](N)[C@H](O)[C@H](C)O1 [DNR, daunorubicin]	16.3 ± 0.7
COc1cccc2c1C(=O)c1c(O)c3c(c(O)c1C2=O)C[C@@](O)(C(=O)CO)C[C@@H]3O[C@H]1C[C@H](N)[C@H](O)[C@H](C)O1 [DOX, doxorubicin]	16.9 ± 1.3
